The values below come from PMC6193536 (Bioorganic & medicinal chemistry letters, 2018).

Test [1] addresses T1, PfPKG (Plasmodium falciparum, UniProt Q8I719). Particulars: data unpublished.
The test system of test [2] is Plasmodium falciparum. Nature of the test: hypoxanthine incorporation assay. It counts as cell-based.
Test [3] has as its target T1, PfPKG. The following applies: cited from earlier work.
Test [4] has as its system Plasmodium falciparum. Particulars: cited from earlier work.

Where two headings read alike, the source gives them in different places.

T1 sequence (Q8I719 whole entry): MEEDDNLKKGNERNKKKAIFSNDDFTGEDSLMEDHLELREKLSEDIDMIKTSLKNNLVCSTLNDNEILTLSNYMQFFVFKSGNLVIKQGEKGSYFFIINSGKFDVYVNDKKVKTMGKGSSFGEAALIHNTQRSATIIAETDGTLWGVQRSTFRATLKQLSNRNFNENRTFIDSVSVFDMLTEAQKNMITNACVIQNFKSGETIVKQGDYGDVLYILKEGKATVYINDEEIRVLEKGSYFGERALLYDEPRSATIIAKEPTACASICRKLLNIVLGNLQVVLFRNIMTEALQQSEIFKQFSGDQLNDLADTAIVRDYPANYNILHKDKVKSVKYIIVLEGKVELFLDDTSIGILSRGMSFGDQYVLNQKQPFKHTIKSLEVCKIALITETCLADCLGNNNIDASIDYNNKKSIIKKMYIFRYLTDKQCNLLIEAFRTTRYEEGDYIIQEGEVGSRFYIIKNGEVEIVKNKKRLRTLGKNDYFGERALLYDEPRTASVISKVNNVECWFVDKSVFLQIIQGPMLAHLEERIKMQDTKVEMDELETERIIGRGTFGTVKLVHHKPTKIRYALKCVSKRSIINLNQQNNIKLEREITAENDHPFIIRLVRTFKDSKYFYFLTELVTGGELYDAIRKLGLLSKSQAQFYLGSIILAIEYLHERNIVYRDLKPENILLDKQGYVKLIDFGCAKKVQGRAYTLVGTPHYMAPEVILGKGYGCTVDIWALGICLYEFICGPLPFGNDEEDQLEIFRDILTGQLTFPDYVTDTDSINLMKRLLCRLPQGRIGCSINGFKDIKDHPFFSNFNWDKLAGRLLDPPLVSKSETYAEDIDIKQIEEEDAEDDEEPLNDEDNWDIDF

On to `CN1CCC(c2cc(-c3ccncc3)c(-c3ccc(F)cc3)[nH]2)CC1` [compound 1], for which, at PfPKG [1], the “potency in biochemical assay against PfPKG” value is given as “low nanomolar potencies”. For the same compound, in the test with panel of human kinases, the “kinase selectivity (other human kinases)” value is given as “poor kinase selectivity”. For the same compound, the “potency in HXI cell viability assay” value with Plasmodium falciparum [2] (data unpublished) is on record as “moderate potency”.
Take `CN1CCC(c2nc(-c3ccc(F)c(NS(C)(=O)=O)c3)c(-c3ccnc(NCC4CC4)n3)s2)CC1` [compound 23]: the “improvement in cellular potency over compound 1” value in the test with Plasmodium falciparum [2] (versus compound 1) was determined as 4 fold.
For `CN(C)Cc1ccn2c(-c3ccnc(N)n3)c(-c3ccc(F)cc3)nc2c1` [compound 2], the “potency in biochemical assay against PfPKG” value at PfPKG [3] is given as “low nanomolar potencies”. In addition, the “potency in HXI cell viability assay” value in the test with Plasmodium falciparum [4] is “moderate potency”.
